From ChEMBL document CHEMBL3797183, “Rigid amphipathic nucleosides suppress reproduction of the tick-borne encephalitis virus” (Medchemcomm, 2016)

Key:
[1] = Cytotoxicity against PEK cells after 24 hrs; type: cell-based, Sus scrofa; conditions: pig
[2] = Cytotoxicity against PEK cells after 7 days; type: cell-based, Sus scrofa; conditions: pig
[3] = tested on: Tick-borne encephalitis virus; assay: Antiviral activity against Tick-borne encephalitis virus Absettarov infected in PEK cells assessed as reduction in viral plaque formation incubated for 1 hr measured after 6 days by gentian violet staining; type: functional, cell-based
[4] = tested on: Tick-borne encephalitis virus; assay: Antiviral activity against Tick-borne encephalitis virus Absettarov infected in PEK cells assessed as reduction in viral plaque formation compounds preincubated with cells for 1 hr followed by addition of virus with subsequent incubation of 1 hr by gentian violet staining; type: functional, cell-based
[5] = tested on: Tick-borne encephalitis virus; assay: Antiviral activity against Tick-borne encephalitis virus Absettarov infected in PEK cells assessed as reduction in viral plaque formation compounds preincubated with virus for 1 hr followed by addition of cells with subsequent incubation of 1 hr measured after 6 days by gentian violet staining; type: functional, cell-based
Human alphaherpesvirus 1 = assay: Antiviral activity against HSV1 KOS infected in African green monkey Vero cells treated for 10 mins measured after 1 to 2 days by crystal violet staining-based assay; type: functional, organism-based; conditions: Human alphaherpesvirus 1, KOS
Human alphaherpesvirus 2 = assay: Antiviral activity against HSV2 186 infected in African green monkey Vero cells treated for 10 mins measured after 1 to 2 days by crystal violet staining-based assay; type: functional, cell-based; conditions: Human alphaherpesvirus 2, strain 186, Vero
[6] = tested on: Vesicular stomatitis virus; assay: Antiviral activity against VSV infected in African green monkey Vero cells treated for 10 mins measured after 1 to 2 days by crystal violet staining-based assay; type: functional, organism-based
Sindbis virus = assay: Antiviral activity against Sindbis virus infected in African green monkey Vero cells treated for 10 mins measured after 1 to 2 days by crystal violet staining-based assay; type: functional, organism-based
Hepatitis C virus = assay: Antiviral activity against HCV JFH-1 infected in human Huh7.5 cells treated for 10 mins measured after 72 hrs by immunocytochemical assay; type: functional, organism-based, Hepacivirus hominis; conditions: JFH-1, Huh-7
Influenza A virus [7] = assay: Antiviral activity against Influenza virus A/PR/8/34 (H1N1) infected in MDCK cells treated for 10 mins measured after 1 hr by neutral red or crystal violet staining-based assay; type: functional, organism-based; conditions: A/Puerto Rico/8/1934(H1N1)
[8] = Antiviral activity against Influenza virus A/USSR/90/77 (H1N1) infected in MDCK cells treated for 10 mins measured after 1 hr by neutral red or crystal violet staining-based assay; type: functional, cell-based, Influenza A virus (A/USSR/90/1977(H1N1))
[9] = Antiviral activity against Influenza virus A/Aichi/2/68 (H3N2) infected in MDCK cells treated for 10 mins measured after 1 hr by neutral red or crystal violet staining-based assay; type: functional, cell-based, Influenza A virus (A/Aichi/2/1968(H3N2))
Influenza A virus [10] = assay: Antiviral activity against Influenza virus A/PC/1/73 (H3N2) infected in MDCK cells treated for 10 mins measured after 1 hr by neutral red or crystal violet staining-based assay; type: functional, organism-based
[11] = tested on: Tick-borne encephalitis virus; assay: Antiviral activity against 2 PFU Tick-borne encephalitis virus Absettarov infected in PEK cells assessed as inhibition of viral titer at 200 EC50 for simultaneous addition of compound/cells/virus incubated for 1 hr measured after 6 days by gentian violet staining; type: functional
[12] = tested on: Tick-borne encephalitis virus; assay: Antiviral activity against 22 PFU Tick-borne encephalitis virus Absettarov infected in PEK cells assessed as inhibition of viral titer at 200 EC50 for simultaneous addition of compound/cells/virus incubated for 1 hr measured after 6 days by gentian violet staining; type: functional
[13] = tested on: Tick-borne encephalitis virus; assay: Antiviral activity against 2.2x10^2 PFU Tick-borne encephalitis virus Absettarov infected in PEK cells assessed as inhibition of viral titer at 200 EC50 for simultaneous addition of compound/cells/virus incubated for 1 hr measured after 6 days by gentian violet staining; type: functional
[14] = tested on: Tick-borne encephalitis virus; assay: Antiviral activity against 2.2x10^3 PFU Tick-borne encephalitis virus Absettarov infected in PEK cells assessed as inhibition of viral titer at 200 EC50 for simultaneous addition of compound/cells/virus incubated for 1 hr measured after 6 days by gentian violet staining; type: functional
[15] = tested on: Tick-borne encephalitis virus; assay: Antiviral activity against 2.2x10^4 PFU Tick-borne encephalitis virus Absettarov infected in PEK cells assessed as inhibition of viral titer at 200 EC50 for simultaneous addition of compound/cells/virus incubated for 1 hr measured after 6 days by gentian violet staining; type: functional
[16] = tested on: Tick-borne encephalitis virus; assay: Antiviral activity against 2.2x10^5 PFU Tick-borne encephalitis virus Absettarov infected in PEK cells assessed as inhibition of viral titer at 200 EC50 for simultaneous addition of compound/cells/virus incubated for 1 hr measured after 6 days by gentian violet staining; type: functional
[17] = Cytotoxicity against PEK cells assessed as cytopathic effect at 50 uM after 7 days relative to control; type: cell-based, Sus scrofa; conditions: pig, 168 h

Row | SMILES | CC50 at 24 h [1] [nM] | CC50 at 168 h [2] [nM] | EC50 [3] [nM] | EC50 [4] [nM] | EC50 [5] [nM] | IC50 (Human alphaherpesvirus 1) [nM] | IC50 (Human alphaherpesvirus 2) [nM] | IC50 [6] [nM] | IC50 (Sindbis virus) [nM] | IC50 (Hepatitis C virus) [nM] | IC50 (Influenza A virus [7]) [nM] | IC50 [8] [nM] | IC50 [9] [nM] | IC50 (Influenza A virus [10]) [nM] | inhibition (INH) [11] [%] | inhibition (INH) [12] [%] | inhibition (INH) [13] [%] | inhibition (INH) [14] [%] | inhibition (INH) [15] [%] | inhibition (INH) [16] [%] | also measured
1 | O=c1[nH]c(=O)n([C@H]2C[C@H](O)[C@@H](CO)O2)cc1C#Cc1ccc2ccc3cccc4ccc1c2c34 | > 50000 | > 50000 | 980 | 42000 | 600 |  |  |  |  |  |  |  |  |  |  |  |  |  |  |  | 
2 | O=c1[nH]c(=O)n([C@@H]2O[C@H](CO)[C@@H](O)[C@@H]2O)cc1C#Cc1ccc2c3cccc4cccc(c5cccc1c52)c43 | > 50000 | 4400 | 18 | 2700 | 40 | 2 | 2 | 2 | 2 | 2 | 2 | 2 | 2 | 2 |  |  |  |  |  |  | 
3 | O=c1[nH]c(=O)n([C@H]2C[C@H](O)[C@@H](CO)O2)cc1C#CCOCc1ccc2c3cccc4cccc(c5cccc1c52)c43 | > 50000 | > 50000 | 500 | > 50000 |  |  |  |  |  |  |  |  |  |  | 100 | 100 | 100 | 100 | 99.9988 | 99.9965 | Activity [17]: 25%
4 | O=c1[nH]c(=O)n([C@H]2C[C@H](O)[C@@H](CO)O2)cc1C#Cc1ccc2c3cccc4cccc(c5cccc1c52)c43 | > 50000 | > 50000 | 24 | 1560 | 40 | 2 | 2 | 2 | 2 | 2 | 2 | 2 | 2 | 2 | 100 | 100 | 100 | 100 | 99.9988 | 99.9995 | Activity [17]: 25%
